Values of other authors, collected in US20140332438A1, “WATER-SOLUBLE MELOXICAM GRANULES” (Boehringer Ingelheim Vetmedica GmbH, priority 2002, published 2014).

Details: aqueous solution, according to EP-A-0 945 134

Cc1cnc(NC(=O)C2=C(O)c3ccccc3S(=O)(=O)N2C)s1 [meloxicam, 4-hydroxy-2-methyl-N-(5-methyl-2-thiazolyl)-2H-1,2-benzothiazine-3-carboxamide-1,1-dioxide]
solubility in water: does not dissolve readily in water
